Data: patent US8569335B2, “Compounds derived from taurine, process of their preparation and pharmaceutical compositions containing these” (EMS S.A., priority 2008, dated 2013)
Where two headings read alike, the source gives them in different places.

What was measured:
[1] = target: T1, iNOS (Homo sapiens, UniProt P35228); experiment: nitric oxide production by macrophages stimulated with LPS, indirect nitrite (NO2-) detection; format: cell-based; settings: 24 hours
T1 construct: The assay used the maximum production of nitric oxide (macrophages stimulated with LPS); endogenous in cells
T1 sequence (P35228 whole entry, species assumed): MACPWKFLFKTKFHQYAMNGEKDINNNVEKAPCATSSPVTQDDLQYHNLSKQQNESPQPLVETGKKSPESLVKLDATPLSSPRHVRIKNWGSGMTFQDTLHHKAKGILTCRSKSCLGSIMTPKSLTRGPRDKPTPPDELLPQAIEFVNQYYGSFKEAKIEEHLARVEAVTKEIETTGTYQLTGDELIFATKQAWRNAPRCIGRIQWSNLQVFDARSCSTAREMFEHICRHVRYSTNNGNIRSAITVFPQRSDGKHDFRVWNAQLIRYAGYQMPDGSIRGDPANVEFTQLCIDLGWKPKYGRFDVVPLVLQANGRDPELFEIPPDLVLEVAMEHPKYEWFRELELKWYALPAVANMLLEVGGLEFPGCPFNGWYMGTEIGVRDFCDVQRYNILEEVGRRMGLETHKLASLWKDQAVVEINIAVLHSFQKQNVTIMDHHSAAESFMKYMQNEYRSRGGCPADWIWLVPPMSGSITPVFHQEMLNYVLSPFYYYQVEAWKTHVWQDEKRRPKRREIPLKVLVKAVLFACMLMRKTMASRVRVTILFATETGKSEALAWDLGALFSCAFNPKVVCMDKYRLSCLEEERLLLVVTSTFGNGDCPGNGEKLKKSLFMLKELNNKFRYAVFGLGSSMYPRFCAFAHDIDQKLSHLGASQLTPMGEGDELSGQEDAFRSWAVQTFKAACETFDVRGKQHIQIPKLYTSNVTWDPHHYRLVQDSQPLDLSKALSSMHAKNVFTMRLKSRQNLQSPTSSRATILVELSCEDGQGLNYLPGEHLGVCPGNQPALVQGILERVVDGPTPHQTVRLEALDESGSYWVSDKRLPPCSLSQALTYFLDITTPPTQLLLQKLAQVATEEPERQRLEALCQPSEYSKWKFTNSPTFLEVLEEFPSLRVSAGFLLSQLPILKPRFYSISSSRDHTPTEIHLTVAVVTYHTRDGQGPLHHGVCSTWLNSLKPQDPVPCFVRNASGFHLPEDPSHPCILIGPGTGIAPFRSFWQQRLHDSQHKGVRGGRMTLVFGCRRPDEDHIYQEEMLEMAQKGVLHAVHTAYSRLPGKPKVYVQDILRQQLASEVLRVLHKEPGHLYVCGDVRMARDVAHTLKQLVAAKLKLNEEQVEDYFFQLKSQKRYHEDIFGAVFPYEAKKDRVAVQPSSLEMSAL

[2] = tested on: gastric mucous membrane; experiment: Gastric ulcerogenesis (gastric ulcerogenesis index, G.U.I.); format: in vivo; settings: for alterations / color of the gastric mucous membrane: same animals as paw's edema model; for lesion index (gastric ulcerogenesis index): stomach 6 hours after paw readings, macroscopic and microscopic (640x)
Description: Gastric ulcerogenesis was verified in the same animals of the groups used for the model of paw's edema.
After 6 hours of the paw's measurement readings, the animals were subjected to euthanasia in CO2, and had their stomach removed, cut open in the longitudinal axis and washed with saline solution. In all experiments, the groups were composed of 6 animals, being kept the desired therapeutic activity, with absence of gastric lesions, and after the LD50 assays, it was concluded that the taurine derived compounds of the present invention are safe. It is worth observing, still, that other organs, such as lungs and intestine, as well as the macroscopic integrity of the other organs were kept preserved.
Through mucous membrane exposition, it was observed its color and integrity. In the case of lesions existence, they were counted and measured, according to the gastric ulcerogenesis index (G.U.I.) that follows numeric criteria for classification of lesions of the gastric mucous membrane: (lesions<1 mm=1; […]; 2.5 to 3.5 mm=3; 3.5 to 4.5 mm=4 and >4.5 mm=5). The obtained results were reported as averages±E. P. M. The results of the lesion experiment regarding the administration of the compounds of the present invention (embodiments corresponding to the Examples 1, 2 and 3) were neither macroscopically nor microscopically (640×) observed, being reported as lesion index of 0 (zero) value.

[3] = tested on: Wistar female rats; settings: for survival: dosage of 1,000 mg/Kg
Description: Wistar female rats weighting between 200 and 250 g were used. […] To all studied groups, dosages of 1,000 and, alternatively, of 1,500 mg/kg were administered by gavage feeding.
After fourteen (14) days of administration and observation regarding the toxicity signs of general kind, effects on motion, behavior, breathing, number of deaths and form of occurrence, the animals that have survived were subjected to euthanasia in CO2 and had their organs such as heart, lungs, kidney, liver and stomach removed and weighted. For the analysis of the results were also considered the body weights.

[4] = tested on: Wistar rat paw's edema; experiment: Wistar rat paw's edema induced by carragenin; format: in vivo; settings: oral; dosage of 44 mg/kg (example 2), 130 mg/Kg (example 3), 182 mg/Kg (example 1)
Description: 14, p. 2589-99, 2006); ÖZTÜRK, G. et al. (ÖZTÜRK, G. et al. “New analgesic and antiinflammatory agents 4(1H)-pyridinone derivatives”, Europe Journal Medicinal Chemistry, v. 37, n. 10 p. 829-34, 2002); LOLLI, et al. (LOLLI, et al. “A new class of ibuprofen derivatives with reduced gastrotoxicity”, Journal of Medicinal Chemistry, v. 44, p. 3463-68, 2001). Besides these, a paw's edema test was performed using taurine as control of its derived compounds, in the dosage of 10 mg/Kg according to HIRATA, T. et al. (HIRATA, T. et al. “Cyclo-oxygenase isozymes in mucosal ulcergenic and functional responses following barrier disruption in rat stomachs”, British Journal of Pharmacology, v. 122, p. 447-54, 1997).
In order to confirm the biological activity of the compounds of the present invention, tests were performed according to the pharmacological model of Wistar rat paw's edema using groups of six animals. It was verified that, in the reported concentrations, in the presence of equimolar dosages of the compounds described in the articles above-mentioned, such as referral drugs, a reduction of the inflammatory process with the use of the compounds of the invention was observed.
The compounds of the present invention were administered 1 (one) hour prior the inoculation of the irritant agent carragenin in the paws of the animals, with the aid of a gavage tube, orally, using water as solvent.
The control group had the irritant agent carragenin applied to the bottom of their posterior paws and, orally, saline solution. […] Other groups of animals had the taurine derived of the present invention (embodiments corresponding to Examples 1, 2 and 3, respectively—orally) administered 60 minutes prior to the carragenin (bottom of the paw).
The posterior paws were measured prior to the treatments and at each hour, for 6 hours after the carragenin was administered, using an thickness meter, in order to measure their volume (in mm). The results were expressed by the difference between the paw's measurement readings before and after the treatments.

[5] = tested on: gastric mucosal injury; settings: rats pre-treated intragastrically with 250 or 500 mg/kg 1 to 3 days before 25 mg/kg indometacin; cited from earlier work
[6] = tested on: isolated gastric mucosal cells; settings: cited from earlier work
[7] = oral administration; literature (Merck Index); cited from earlier work
[8] = tested on: gastric ulceration; settings: pre clinic tests; cited from earlier work

Structure (SMILES): N=C(N)NN [aminoguanidine]
- inhibition of nitric oxide production (NOS inhibition activity) [1]: total inhibition of nitric oxide production

Structure (SMILES): COc1ccc2c(c1)c(CC(=O)NCCS(=O)(=O)[O-])c(C)n2C(=O)c1ccc(Cl)cc1.[Na+] [Compound 64]
- alterations / color of the gastric mucous membrane [2]: not observed alterations in the mucous membrane
- lesion index (gastric ulcerogenesis index) [2]: 0
- weight of the organs (kidney, heart and liver) versus control animals ([3]; after the toxicity assay, 14 days): substantially close of those obtained with the control animals
- survival ([3]; gavage): no animal has died
- population survived ([3]; dosage of 1,500 mg/Kg, gavage): 66%
- anti inflammatory activity in paw's edema [4]: anti inflammatory activity

Structure (SMILES): CC(C)Cc1ccc(C(C)C(=O)O)cc1 (stereo not shown) [ibuprophen, reference compound]
- alterations / color of the gastric mucous membrane [2]: color alteration of the mucous membrane

Structure (SMILES): NCCS(=O)(=O)O [taurine, 2-aminoethanesulfonic acid]
- hemorrhagic gastric lesion [5]: lesion reduction
- increase of cellular resistance [6]: 21%

Structure (SMILES): COc1ccc2cc(C(C)C(=O)NCCS(=O)(=O)[O-])ccc2c1.[Na+] (stereo not shown) [Compound 63, 2-{[2-(6-methoxy-2-naphthyl)propanoyl]amide}ethanesulfonic acid]
- alterations / color of the gastric mucous membrane [2]: not observed alterations in the mucous membrane
- lesion index (gastric ulcerogenesis index) [2]: 0
- survival ([3]; gavage): all animals survived
- deaths ([3]; dosage of 1,500 mg/Kg, gavage): 17%
- anti inflammatory activity in paw's edema [4]: anti inflammatory activity
- LD50 [7]: 1,234 mg/Kg

Structure (SMILES): COC(=O)[C@@H](N)CCCNC(=N)N[N+](=O)[O-] [L-NAME, N^G-nitro-L-arginine methyl esther]
- change in gastric acidity [8]: does not affect gastric acidity
- lesion rate [8]: doubles
- reduction of nitric oxide (measured as nitrite) [8]: 50%

Structure (SMILES): CC(C)Cc1ccc(C(C)C(=O)NCCS(=O)(=O)[O-])cc1.[Na+] (stereo not shown) [Compound 27, [2-(4-isobuthylphenyl)propanoyl]amide ethanesulfonic acid]
- alterations / color of the gastric mucous membrane [2]: did not present any color alteration in the mucous membrane
- alterations / color of the gastric mucous membrane ([2]; listed as Example 1): not observed alterations in the mucous membrane
- lesion index (gastric ulcerogenesis index) [2]: 0
- deaths ([3]; any of the tested dosages (1,000 and 1,500 mg/kg), gavage): no death in any of the tested dosages
- anti inflammatory activity in paw's edema [4]: anti inflammatory activity
- LD50 [7]: 1,050 mg/Kg
